Legend:
Experiment in all cases: KinomeScan
Assay type in all cases: binding
Conditions in all cases: read-out: % Ctrl @ 10000 nM
[1] = biological target: T1, KIT(V559D, T670I) (Homo sapiens, UniProt P10721, T670I/V559D)
T1 construct: host or cells: T7 phage grown in E. coli host derived from BL21
Summary of the method: (§1)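 Binding is measured by competition: test compound displaces kinase-tagged phage from immobilized ligand, and phage remaining bound is titered by qPCR after elution.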

[2] = biological target: T2, ERK8 (Homo sapiens, UniProt Q8TD08)
T2 construct: purchased Ambit Biosciences Corp; host or cells: T7 phage in E. coli host derived from BL21
Summary of the method: as §1

[3] = biological target: T3, ASK1 (Homo sapiens, UniProt Q99683)
T3 construct: host or cells: E. coli host derived from BL21
Summary of the method: as §1

[4] = biological target: T4, p38-beta (Homo sapiens, UniProt Q15759)
T4 construct: host or cells: E. coli host derived from BL21, infected with T7 phage
Summary of the method: as §1

[5] = biological target: T5, MYLK2 (Homo sapiens, UniProt Q9H1R3)
T5 construct: host or cells: T7 phage grown in E. coli host derived from BL21
Summary of the method: as §1

[6] = biological target: T6, CAMK2B (Homo sapiens, UniProt Q13554)
T6 construct: host or cells: E. coli host derived from BL21
Summary of the method: as §1

[7] = biological target: T7, JAK3(JH1domain- catalytic) (Homo sapiens, UniProt P52333)
T7 construct: JAK3(JH1domain- catalytic); host or cells: T7 phage grown in E. coli host derived from BL21
Summary of the method: as §1

[8] = biological target: T8, WEE1 (Homo sapiens, UniProt P30291)
T8 construct: host or cells: E. coli host derived from BL21, T7 phage
Summary of the method: as §1

[9] = biological target: T9, NEK6 (Homo sapiens, UniProt Q9HC98)
T9 construct: host or cells: T7 phage grown in E. coli host derived from BL21
Summary of the method: as §1

[10] = biological target: T10, FYN (Homo sapiens, UniProt P06241)
T10 construct: host or cells: T7 phage in E. coli host derived from BL21
Summary of the method: as §1

[11] = biological target: T11, ERK5 (Homo sapiens, UniProt Q13164)
T11 construct: purchased Ambit Biosciences Corp; host or cells: T7 phage in E. coli host derived from BL21
Summary of the method: as §1

[12] = biological target: T12, PAK6 (Homo sapiens, UniProt Q9NQU5)
T12 construct: host or cells: E. coli host derived from BL21, infected with T7 phage
Summary of the method: as §1

[13] = biological target: T13, MRCKA (Homo sapiens, UniProt Q5VT25)
T13 construct: host or cells: T7 phage grown in E. coli host derived from BL21
Summary of the method: as §1

[14] = biological target: T14, NDR2 (Homo sapiens, UniProt Q9Y2H1)
T14 construct: host or cells: T7 phage grown in E. coli host derived from BL21
Summary of the method: as §1

[15] = biological target: T15, GSK3B (Homo sapiens, UniProt P49841)
T15 construct: host or cells: T7 phage in E. coli host derived from BL21
Summary of the method: as §1

[16] = biological target: T16, CSNK1G2 (Homo sapiens, UniProt P78368)
T16 construct: purchased Ambit Biosciences Corp (KinomeScan); host or cells: T7 phage in E. coli host derived from BL21
Summary of the method: as §1

[17] = biological target: T17, CAMKK2 (Homo sapiens, UniProt Q96RR4)
T17 construct: host or cells: T7 phage in E. coli host derived from BL21
Summary of the method: as §1

[18] = biological target: T18, MARK1 (Homo sapiens, UniProt Q9P0L2)
T18 construct: host or cells: E. coli host derived from the BL21 strain, infected with T7 phage
Summary of the method: as §1

[19] = biological target: T19, p38-gamma (Homo sapiens, UniProt P53778)
T19 construct: host or cells: E. coli host derived from BL21, infected with T7 phage
Summary of the method: as §1

[20] = biological target: T20, PAK7 (Homo sapiens, UniProt Q9P286)
T20 construct: host or cells: E. coli host derived from BL21, infected with T7 phage
Summary of the method: as §1

[21] = biological target: T21, FLT3 (Homo sapiens, UniProt P36888)
T21 construct: host or cells: T7 phage in E. coli host derived from BL21
Summary of the method: as §1

[22] = biological target: T22, EPHB2 (Homo sapiens, UniProt P29323)
T22 construct: purchased Ambit Biosciences Corp; host or cells: T7 phage in E. coli host derived from BL21
Summary of the method: as §1

[23] = biological target: T23, MEK6 (Homo sapiens, UniProt P52564)
T23 construct: host or cells: E. coli host derived from the BL21 strain, infected with T7 phage
Summary of the method: as §1

[24] = biological target: T24, LOK (Homo sapiens, UniProt O94804)
T24 construct: host or cells: E. coli host derived from the BL21 strain, infected with T7 phage
Summary of the method: as §1

[25] = biological target: T25, CSK (Homo sapiens, UniProt P41240)
T25 construct: host or cells: T7 phage in E. coli host derived from BL21
Summary of the method: as §1

[26] = biological target: T26, MKNK1 (Homo sapiens, UniProt Q9BUB5)
T26 construct: host or cells: T7 phage grown in E. coli host derived from BL21
Summary of the method: as §1

[27] = biological target: T27, CSNK1G3 (Homo sapiens, UniProt Q9Y6M4)
T27 construct: purchased Ambit Biosciences Corp (KinomeScan); host or cells: T7 phage in E. coli host derived from BL21
Summary of the method: as §1

[28] = biological target: T28, EGFR(L858R) (Homo sapiens, UniProt P00533, L858R)
T28 construct: purchased Ambit Biosciences Corp; host or cells: T7 phage in E. coli host derived from BL21
Summary of the method: as §1

[29] = biological target: T29, RET (Homo sapiens, UniProt P07949)
T29 construct: host or cells: E. coli host derived from BL21, T7 phage display
Summary of the method: as §1

[30] = biological target: T30, PIM3 (Homo sapiens, UniProt Q86V86)
T30 construct: host or cells: T7 phage in E. coli host derived from BL21
Summary of the method: as §1

[31] = biological target: T31, STK35 (Homo sapiens, UniProt Q8TDR2)
T31 construct: host or cells: T7 phage grown in E. coli (BL21-derived)
Summary of the method: as §1

[32] = biological target: T32, CSNK1D (Homo sapiens, UniProt P48730)
T32 construct: host or cells: T7 phage in E. coli host derived from BL21
Summary of the method: as §1

[33] = biological target: T33, TAOK3 (Homo sapiens, UniProt Q9H2K8)
T33 construct: host or cells: T7 phage grown in E. coli (BL21-derived)
Summary of the method: as §1

[34] = biological target: T34, MST1 (Homo sapiens, UniProt Q13043)
T34 construct: host or cells: T7 phage grown in E. coli host derived from BL21
Summary of the method: as §1

T19 sequence (P53778 whole entry): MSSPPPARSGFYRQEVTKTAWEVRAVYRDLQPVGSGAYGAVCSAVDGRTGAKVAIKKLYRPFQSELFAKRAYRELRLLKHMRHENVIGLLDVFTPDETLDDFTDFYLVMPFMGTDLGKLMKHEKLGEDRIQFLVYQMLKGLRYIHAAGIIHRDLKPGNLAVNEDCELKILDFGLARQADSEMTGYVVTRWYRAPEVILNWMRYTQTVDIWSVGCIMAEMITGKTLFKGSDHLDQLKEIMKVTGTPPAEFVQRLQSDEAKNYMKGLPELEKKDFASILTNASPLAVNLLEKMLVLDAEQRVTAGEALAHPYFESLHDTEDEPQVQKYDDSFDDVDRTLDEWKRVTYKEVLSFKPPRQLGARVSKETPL
T9 sequence (Q9HC98 whole entry): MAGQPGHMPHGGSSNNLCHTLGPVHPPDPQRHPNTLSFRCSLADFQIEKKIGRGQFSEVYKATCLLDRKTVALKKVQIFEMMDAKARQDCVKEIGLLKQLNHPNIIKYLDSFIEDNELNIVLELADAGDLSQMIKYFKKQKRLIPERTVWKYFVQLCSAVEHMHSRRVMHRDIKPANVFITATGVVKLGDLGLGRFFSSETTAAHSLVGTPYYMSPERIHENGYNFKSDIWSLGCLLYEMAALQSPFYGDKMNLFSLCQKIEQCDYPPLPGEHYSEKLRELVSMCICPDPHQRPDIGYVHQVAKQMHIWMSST
T2 sequence (Q8TD08 whole entry): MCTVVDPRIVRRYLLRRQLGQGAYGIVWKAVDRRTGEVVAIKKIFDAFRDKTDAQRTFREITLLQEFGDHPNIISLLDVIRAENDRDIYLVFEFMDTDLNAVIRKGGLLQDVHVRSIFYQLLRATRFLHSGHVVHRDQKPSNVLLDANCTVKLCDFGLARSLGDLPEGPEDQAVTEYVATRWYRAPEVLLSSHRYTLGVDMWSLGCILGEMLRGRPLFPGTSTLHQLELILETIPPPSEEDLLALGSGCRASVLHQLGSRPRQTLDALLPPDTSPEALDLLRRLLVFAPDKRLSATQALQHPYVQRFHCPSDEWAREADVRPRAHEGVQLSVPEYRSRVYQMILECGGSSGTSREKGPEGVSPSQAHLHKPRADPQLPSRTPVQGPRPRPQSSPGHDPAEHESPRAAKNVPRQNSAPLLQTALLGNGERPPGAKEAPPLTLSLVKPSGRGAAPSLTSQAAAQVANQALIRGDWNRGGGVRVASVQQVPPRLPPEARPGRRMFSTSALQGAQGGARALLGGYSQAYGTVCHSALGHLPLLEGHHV
T31 sequence (Q8TDR2 whole entry): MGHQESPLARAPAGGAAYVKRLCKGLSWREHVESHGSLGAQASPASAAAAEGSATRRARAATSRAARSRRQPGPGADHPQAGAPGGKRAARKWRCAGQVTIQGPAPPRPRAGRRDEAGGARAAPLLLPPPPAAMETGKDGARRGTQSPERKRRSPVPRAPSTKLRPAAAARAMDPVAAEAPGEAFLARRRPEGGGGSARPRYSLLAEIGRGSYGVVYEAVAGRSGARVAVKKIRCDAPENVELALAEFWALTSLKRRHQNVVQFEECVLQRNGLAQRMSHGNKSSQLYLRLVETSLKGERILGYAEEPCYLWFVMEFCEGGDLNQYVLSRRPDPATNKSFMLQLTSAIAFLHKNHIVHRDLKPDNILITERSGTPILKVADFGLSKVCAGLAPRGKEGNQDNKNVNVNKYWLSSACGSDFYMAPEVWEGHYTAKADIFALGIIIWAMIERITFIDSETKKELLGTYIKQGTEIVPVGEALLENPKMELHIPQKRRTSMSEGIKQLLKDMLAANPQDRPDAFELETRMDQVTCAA
T5 sequence (Q9H1R3 whole entry): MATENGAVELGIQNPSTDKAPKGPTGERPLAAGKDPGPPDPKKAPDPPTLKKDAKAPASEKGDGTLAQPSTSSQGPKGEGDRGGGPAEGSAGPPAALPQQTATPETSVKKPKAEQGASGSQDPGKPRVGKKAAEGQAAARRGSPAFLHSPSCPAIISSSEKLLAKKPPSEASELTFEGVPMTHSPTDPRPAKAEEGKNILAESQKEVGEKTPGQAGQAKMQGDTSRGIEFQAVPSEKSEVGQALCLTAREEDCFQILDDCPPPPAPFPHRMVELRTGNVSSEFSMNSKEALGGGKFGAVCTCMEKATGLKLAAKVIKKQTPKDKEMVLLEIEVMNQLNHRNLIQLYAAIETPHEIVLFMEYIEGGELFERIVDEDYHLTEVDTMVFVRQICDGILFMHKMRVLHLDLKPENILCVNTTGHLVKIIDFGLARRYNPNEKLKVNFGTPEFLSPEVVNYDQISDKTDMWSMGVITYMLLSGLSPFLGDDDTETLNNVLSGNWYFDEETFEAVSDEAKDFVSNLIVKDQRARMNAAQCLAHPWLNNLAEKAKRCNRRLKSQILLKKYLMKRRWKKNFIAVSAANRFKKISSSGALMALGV
T26 sequence (Q9BUB5 whole entry): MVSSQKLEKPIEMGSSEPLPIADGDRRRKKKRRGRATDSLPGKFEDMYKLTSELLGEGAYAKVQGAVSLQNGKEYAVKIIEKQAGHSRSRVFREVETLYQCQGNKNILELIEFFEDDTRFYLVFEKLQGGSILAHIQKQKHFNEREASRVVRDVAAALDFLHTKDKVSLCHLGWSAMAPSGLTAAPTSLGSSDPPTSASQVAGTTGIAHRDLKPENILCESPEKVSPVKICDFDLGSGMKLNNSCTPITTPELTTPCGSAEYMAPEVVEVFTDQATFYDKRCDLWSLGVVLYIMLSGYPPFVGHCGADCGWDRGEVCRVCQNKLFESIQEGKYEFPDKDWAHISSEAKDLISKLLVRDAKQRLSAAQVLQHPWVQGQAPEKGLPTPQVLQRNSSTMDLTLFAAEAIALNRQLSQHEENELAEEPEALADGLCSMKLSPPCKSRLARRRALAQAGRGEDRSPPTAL
T12 sequence (Q9NQU5 whole entry): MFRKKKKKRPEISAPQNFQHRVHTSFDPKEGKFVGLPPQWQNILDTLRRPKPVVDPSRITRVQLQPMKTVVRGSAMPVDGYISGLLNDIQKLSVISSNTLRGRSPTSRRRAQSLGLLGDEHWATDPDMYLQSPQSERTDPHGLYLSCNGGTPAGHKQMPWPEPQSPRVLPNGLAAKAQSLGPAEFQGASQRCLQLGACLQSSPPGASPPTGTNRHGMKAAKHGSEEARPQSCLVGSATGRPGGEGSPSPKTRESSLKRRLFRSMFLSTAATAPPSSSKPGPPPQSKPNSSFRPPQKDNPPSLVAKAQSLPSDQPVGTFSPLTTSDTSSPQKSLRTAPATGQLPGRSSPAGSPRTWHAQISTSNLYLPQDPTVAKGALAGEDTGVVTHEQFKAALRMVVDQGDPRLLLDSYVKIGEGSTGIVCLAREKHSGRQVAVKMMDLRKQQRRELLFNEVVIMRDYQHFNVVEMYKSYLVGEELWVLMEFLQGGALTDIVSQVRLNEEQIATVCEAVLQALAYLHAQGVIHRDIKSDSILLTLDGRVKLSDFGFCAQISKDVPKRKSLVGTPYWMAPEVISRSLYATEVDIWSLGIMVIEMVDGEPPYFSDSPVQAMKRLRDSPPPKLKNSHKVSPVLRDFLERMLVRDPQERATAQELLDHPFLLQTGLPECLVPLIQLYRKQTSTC
T29 sequence (P07949 29-1114): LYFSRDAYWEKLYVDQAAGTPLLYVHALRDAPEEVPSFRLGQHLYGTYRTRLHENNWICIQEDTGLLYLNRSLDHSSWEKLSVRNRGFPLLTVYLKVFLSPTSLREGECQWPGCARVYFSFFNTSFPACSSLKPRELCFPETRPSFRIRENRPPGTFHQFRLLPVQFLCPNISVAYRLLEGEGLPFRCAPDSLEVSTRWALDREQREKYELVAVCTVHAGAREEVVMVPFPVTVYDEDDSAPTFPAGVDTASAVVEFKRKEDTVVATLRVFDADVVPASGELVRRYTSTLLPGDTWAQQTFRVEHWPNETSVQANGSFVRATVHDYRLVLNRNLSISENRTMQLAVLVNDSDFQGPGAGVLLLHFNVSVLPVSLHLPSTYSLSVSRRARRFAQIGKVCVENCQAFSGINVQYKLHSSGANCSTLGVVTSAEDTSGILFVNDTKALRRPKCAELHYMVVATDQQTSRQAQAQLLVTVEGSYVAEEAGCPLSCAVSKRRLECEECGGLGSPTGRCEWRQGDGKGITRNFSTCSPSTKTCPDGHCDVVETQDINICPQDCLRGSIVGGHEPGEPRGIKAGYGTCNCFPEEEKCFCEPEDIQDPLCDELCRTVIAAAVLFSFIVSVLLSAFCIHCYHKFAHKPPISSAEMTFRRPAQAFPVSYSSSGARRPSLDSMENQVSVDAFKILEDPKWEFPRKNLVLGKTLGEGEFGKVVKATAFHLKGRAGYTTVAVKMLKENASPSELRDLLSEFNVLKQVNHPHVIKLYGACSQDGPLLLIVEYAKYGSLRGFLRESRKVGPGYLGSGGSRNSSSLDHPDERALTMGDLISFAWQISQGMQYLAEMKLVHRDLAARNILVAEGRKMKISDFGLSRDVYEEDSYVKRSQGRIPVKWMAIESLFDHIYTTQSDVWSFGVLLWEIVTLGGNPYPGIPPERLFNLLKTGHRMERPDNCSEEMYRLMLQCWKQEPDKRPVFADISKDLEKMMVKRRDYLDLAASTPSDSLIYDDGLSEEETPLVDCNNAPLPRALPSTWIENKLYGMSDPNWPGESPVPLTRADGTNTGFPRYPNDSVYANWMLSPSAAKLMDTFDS
T4 sequence (Q15759 whole entry): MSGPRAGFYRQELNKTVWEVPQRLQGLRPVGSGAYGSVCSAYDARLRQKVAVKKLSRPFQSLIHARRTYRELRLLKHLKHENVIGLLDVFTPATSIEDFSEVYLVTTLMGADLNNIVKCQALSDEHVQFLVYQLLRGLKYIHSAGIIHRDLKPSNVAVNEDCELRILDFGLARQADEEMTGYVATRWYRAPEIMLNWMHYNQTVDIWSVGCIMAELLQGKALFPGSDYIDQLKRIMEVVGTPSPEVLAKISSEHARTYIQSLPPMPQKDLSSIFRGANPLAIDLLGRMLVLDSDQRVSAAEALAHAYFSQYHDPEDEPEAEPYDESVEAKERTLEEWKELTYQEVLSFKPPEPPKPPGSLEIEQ

Compound `C#Cc1cccc(Nc2ncnc3cc(OC)c(OCCCN4CCOCC4)cc23)c1` [NRC-2694, N-(3-ethynylphenyl)-7-methoxy-6-[3-(4-morpholinyl)propoxy]-4-quinazolinamine] has a remaining binding at 10 µM [1] of 28%, a remaining binding at 10 µM [2] of 62% and a remaining binding at 10 µM [3] of 100%. The remaining binding at 10 µM [4] was 100%, the remaining binding at 10 µM [5] was 4.8% and the remaining binding at 10 µM [6] was 77%. The remaining binding at 10 µM [7] was 72%, the remaining binding at 10 µM [8] was 74% and the remaining binding at 10 µM [9] was 94%. The remaining binding at 10 µM [10] was 41%, the remaining binding at 10 µM [11] was 90% and the remaining binding at 10 µM [12] was 70%. It also gave a remaining binding at 10 µM [13] of 81%, a remaining binding at 10 µM [14] of 74% and a remaining binding at 10 µM [15] of 100%. The remaining binding at 10 µM [16] was 76%, the remaining binding at 10 µM [17] was 60% and the remaining binding at 10 µM [18] was 56%. The remaining binding at 10 µM [19] was 97%, the remaining binding at 10 µM [20] was 63% and the remaining binding at 10 µM [21] was 49%. The remaining binding at 10 µM [22] was 83%, the remaining binding at 10 µM [23] was 75% and the remaining binding at 10 µM [24] was 0%. For the same compound, the remaining binding at 10 µM [25] was 53%, the remaining binding at 10 µM [26] was 1.2% and the remaining binding at 10 µM [27] was 61%. It also gave a remaining binding at 10 µM [28] of 0%, a remaining binding at 10 µM [29] of 65% and a remaining binding at 10 µM [30] of 23%. For the same compound, the remaining binding at 10 µM [31] was 52%, the remaining binding at 10 µM [32] was 25% and the remaining binding at 10 µM [33] was 76%. For the same compound, the remaining binding at 10 µM [34] was 100%.

From US8921362B2, “6,7-dialkoxy quinazoline derivatives and methods of treating drug resistant and other tumors” (Natco Pharma Limited, priority 2008, dated 2014)
